Data on two compounds can be found in patent US20120035206A1, “PREPARATION AND APPLICATION OF NOVEL ANTIBACTERIAL AND ANTICANCER COMPOUNDS AND THEIR DERIVATIVES” (priority 2009, published 2012).

Values after ≈ are worked out from the molar mass of the structure shown.

As a reminder, the MIC is the lowest concentration found to suppress growth.

Type in all cases: cell-based
For one test, the system named is A. niger. Description: In vitro antibacterial (antifungal) test, two-fold dilution MIC. The conditions noted are these: Aspergillus niger, RPMI 1640, culture 2-7 days.
A further test deals with C. Krusei. Described as above. The conditions noted are these: Pichia kudriavzevii, RPMI 1640, culture 2-7 days.
Another test has as its system C. albicans. The description is as above. As to conditions: Candida albicans, read-out: MIC C. albicas.
Another test concerns C. glabrata. The description is as above. The conditions noted are these: Nakaseomyces glabratus, RPMI 1640, culture 2-7 days.
In the next test the test system is C. neoformans. The test is described as above. As to conditions: Cryptococcus neoformans, RPMI 1640, culture 2-7 days.
The test system of another test is C. parapsilosis. The description is as above. As to conditions: Lodderomyces parapsilosis, RPMI 1640, culture 2-7 days.
The next test deals with C. tropicalis. The test is described as above. The conditions noted are these: Candida tropicalis, RPMI 1640, culture 2-7 days.
The next test concerns E. floccosum. The test is described as above. As to conditions: Epidermophyton floccosum, RPMI 1640, culture 2-7 days.
The next test relates to M. gypseum. Described as above. As to conditions: Nannizzia gypsea, RPMI 1640, culture 2-7 days.
The next test concerns S. schenekn. Described as above. The conditions noted are these: RPMI 1640, culture 2-7 days.
For a further test, the system named is A375. As to the kind of experiment: In vitro anticancer MTT experiment. As to conditions: Homo sapiens, A-375, concentration 5 ug/ml, 48 h or 72 h, read-out: inhibition ratio A375. In a few lines: (§1)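 Cells seeded (6000-7000/well) → 12 h at 37° C., 5% CO2 → compound 48 or 72 h → MTT 4 h → DMSO → A570. % inhibition vs untreated and medium-only wells, at 5 ug/ml.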

In the next test the test system is AS24391. Description: In vitro anticancer MTT experiment. The conditions noted are these: concentration 5 ug/ml, 48 h or 72 h, read-out: inhibition ratio AS24391. Summed up: as §1
A further test has as its system B01092. As to the kind of experiment: In vitro anticancer MTT experiment. As to conditions: concentration 5 ug/ml, 48 h or 72 h, read-out: inhibition ratio B01092. Summed up: as §1
For another test, the system named is CRL-1469PANC-1. As to the kind of experiment: In vitro anticancer MTT experiment. The conditions noted are these: concentration 5 ug/ml, 48 h or 72 h, read-out: inhibition ratio CRL-1469PANC-1. In a few lines: as §1
The test system of the next test is FTC 133. Description: In vitro anticancer MTT experiment. The conditions noted are these: Homo sapiens, concentration 5 ug/ml, 48 h or 72 h, read-out: inhibition ratio FTC 133. Summed up: as §1
Another test has as its system HTB-131MDA-MB-453. Description: In vitro anticancer MTT experiment. As to conditions: concentration 5 ug/ml, 48 h or 72 h, read-out: inhibition ratio HTB-131MDA-MB-453. In a few lines:
as §1

The test system of another test is HTB-38HT-29. As to the kind of experiment: In vitro anticancer MTT experiment. As to conditions: concentration 5 ug/ml, 48 h or 72 h, read-out: inhibition ratio HTB-38HT-29. In a few lines:
as §1

For another test, the system named is HTB-94. As to the kind of experiment: In vitro anticancer MTT experiment. The conditions noted are these: concentration 5 ug/ml, 48 h or 72 h, read-out: inhibition ratio HTB-94. In a few lines:
as §1

In the next test the test system is HTB-95637. Description: In vitro anticancer MTT experiment. The conditions noted are these: concentration 5 ug/ml, 48 h or 72 h, read-out: inhibition ratio HTB-95637. In a few lines: as §1
A further test concerns L1210. As to the kind of experiment: In vitro anticancer MTT experiment. As to conditions: Mus musculus, concentration 5 ug/ml, 48 h or 72 h, read-out: inhibition ratio L1210. Summed up:
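For this screen, trypsinised log-phase cells were plated and pre-incubated 12 h before receiving compound for 48 h or 72 h; MTT was then added for 4 h and formazan dissolved in DMSO. Percent inhibition at 5 ug/ml was derived from 570 nm absorbance relative to untreated cells and blank medium.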

The test system of another test is L428. Description: In vitro anticancer MTT experiment. The conditions noted are these: Homo sapiens, L-428, concentration 5 ug/ml, 48 h or 72 h, read-out: inhibition ratio L428. Summed up:
as §1

A further test concerns SGC7901. Description: In vitro anticancer MTT experiment. As to conditions: Homo sapiens, SGC-7901, concentration 5 ug/ml, 48 h or 72 h, read-out: inhibition ratio SGC7901. In a few lines: as §1

For the compound `Cc1ccc2c(c1)C(=O)/C(=C\O)CS2` [Compound 2], the minimal inhibitory concentration (MIC) in the test on A. niger is 64 µg/mL (≈ 310 µM); against C. Krusei it was 32 µg/mL (≈ 155 µM); in the test on C. albicans, 32 µg/mL (≈ 155 µM); against C. glabrata, 32 µg/mL (≈ 155 µM); in the test on C. neoformans, 32 µg/mL (≈ 155 µM); against C. parapsilosis it was 64 µg/mL (≈ 310 µM). Besides, the minimal inhibitory concentration (MIC) amounted to 32 µg/mL (≈ 155 µM) in the test on C. tropicalis, 32 µg/mL (≈ 155 µM) with E. floccosum, 32 µg/mL (≈ 155 µM) with M. gypseum and 16 µg/mL (≈ 77.6 µM) in the test with S. schenekn.
Take `Cc1ccc2c(c1)C(=O)CSC2` [Compound 13]: the minimal inhibitory concentration (MIC) in the test with A. niger worked out at 32 µg/mL (≈ 180 µM); in the test on C. albicans it was 64 µg/mL (≈ 359 µM); in the test with C. glabrata, 64 µg/mL (≈ 359 µM); with C. neoformans, 64 µg/mL (≈ 359 µM); in the test with C. parapsilosis it was 32 µg/mL (≈ 180 µM); in the test on C. tropicalis it was 16 µg/mL (≈ 89.8 µM). Further, the MIC against E. floccosum amounted to 32 µg/mL (≈ 180 µM); in the test on M. gypseum, 16 µg/mL (≈ 89.8 µM); with S. schenekn, 64 µg/mL (≈ 359 µM). The inhibition at 5 µg/mL came to 74.3% in the test on A375; 45.1% in the test with AS24391; 43.8% in the test on B01092; 62.7% in the test with CRL-1469PANC-1; 57.8% with FTC 133; 65.5% with HTB-131MDA-MB-453. Moreover, the inhibition at 5 µg/mL in the test on HTB-38HT-29 was found to be 57.3%; with HTB-94, 45.6%; in the test with HTB-95637 it was 56.6%; in the test on L1210, 85.6%; in the test on L428, 37.5%; with SGC7901, 50.6%.
